# Read-outs that look alike come from different tables or passages of the source.
# Legend:
# [1] = system: Mycobacterium tuberculosis (Mtb); assay: microbe, parasite or virus in culture; type: cell-based, Mycobacterium tuberculosis H37Rv (Mtb-GFP); settings: 168 h
# [2] = system: Staphylococcus aureus (methicillin resistant, MB5393, COL); assay: microbe, parasite or virus in culture; type: cell-based; settings: MRSA, 22 h, read-out: MRSA COL MITC95 μM
# Experimental: Inhibition of Staphylococcus aureus (methicillin resistant, MB5393, COL) growth was assessed in cation adjusted Mueller Hinton II broth (CAMHB) in 384-well microtiter plates. Bacteria were dispensed into microtiter plates at approximately 5×10^5 actively growing cells in 49 μL volumes per well. Cells were exposed to 2-fold serial dilutions of compounds from 200 μM to 0.195 μM and growth compared to drug-free control. Compound dilutions were prepared in 100% dimethylsulfoxide and added to microtiter plates in 1 μL volumes per well. Full growth control wells contained dimethylsufoxide and bacteria. No growth control wells contained dimethysulfoxide and CAMHB but no bacteria. Growth inhibition was assessed after a 22-hour growth period by measuring optical density using a spectrophotometer. The lowest concentration of test compound required to inhibit 95% of the growth of the bacteria was defined as the MITC95. All studies were done in a BSL2 facility.
# [3] = system: mitochondrial protein synthesis in HepG2 cells (COX-I / SDH-A); assay: Mitochondrial protein synthesis assay; type: cell-based; settings: Homo sapiens, read-out: MPS IC50_μM
# Experimental: (§1) Inhibition of mitochondrial protein synthesis was assessed in HepG2 cells by comparing the levels of two subunits of oxidative phosphorylation enzyme complexes, subunit I of Complex IV (COX-I) and the 70 kDa subunit of Complex II (SDH-A). COX-I is mitochondrial DNA encoded and SDH-A is nuclear DNA encoded. HepG2 cells were seeded in 96-well collagen coated plates at 8,000 cells per well and exposed to 2-fold serial dilutions of compounds from 100 LM to 6.25 μM. Microtiter plates were incubated for approximately 5 replication cycles (4 days) prior to assessment of protein levels using a kit as described by the manufacturer (ab 110217 MitoBiogenesis In Cell ELISA Kit, Abcam, Cambridge, Mass.). Inhibition of mitochondrial protein synthesis was expressed as a ratio of COX-1 to SDH-A levels.
# as §1, with “μM” for “LM”
# [4] = pH 6.8, read-out: Mtb Cho MITC95_μM
# [5] = pH 6.8, read-out: Mtb Glu MITC95_μM
# [6] = 96 h, HepG2 cells, 4 days, ratio of COX-1 to SDH-A levels
compound,measurement,setting,value
"NC[C@H]1CN(c2ccc(-c3ccc(Cl)nc3)c(F)c2)C(=O)O1 [Example 22, (5S)-5-(aminomethyl)-3-[4-(6-chloropyridin-3-yl)-3-fluorophenyl]-1,3-oxazolidin-2-one]",MIC,[1]; [4],0.19 µM
same,MIC,[1]; [5],0.04 µM
same,MIC,[2],100 µM
same,IC50,[3]; [6],> 20 µM
"CC(C)(O)c1ncc(-c2ccc(N3C[C@H](CN)OC3=O)cc2F)s1 [Example 23, (5S)-5-(aminomethyl)-3-{3-fluoro-4-[2-(1-hydroxy-1-methylethyl)-1,3-thiazol-5-yl]phenyl}-1,3-oxazolidin-2-one]",MIC,[1]; [4],0.19 µM
same,MIC,[1]; [5],0.19 µM
same,MIC,[2],200 µM
same,IC50,[3]; [6],> 20 µM
"NC[C@H]1CN(c2ccc(-c3cccnc3)c(F)c2)C(=O)O1 [Example 24, (5S)-5-(aminomethyl)-3-(3-fluoro-4-pyridin-3-ylphenyl)-1,3-oxazolidin-2-one]",MIC,[1]; [4],0.09 µM
same,MIC,[1]; [5],0.04 µM
same,MIC,[2],200 µM
same,IC50,[3]; [6],> 20 µM
"NC[C@H]1CN(c2ccc(-c3cncnc3)c(F)c2)C(=O)O1 [Example 25, (5S)-5-(aminomethyl)-3-(3-fluoro-4-pyrimidin-5-ylphenyl)-1,3-oxazolidin-2-one]",MIC,[1]; [4],0.19 µM
same,MIC,[1]; [5],0.04 µM
same,MIC,[2],200 µM
same,IC50,[3]; [6],> 20 µM
"CC(C)(C)OC(=O)N1CC=C(c2ccc(N3C[C@H](CN)OC3=O)cc2F)CC1 [Example 26, tert-butyl 4-{4-[(5S)-5-(aminomethyl)-2-oxo-1,3-oxazolidin-3-yl]-2-fluorophenyl}-3,6-dihydropyridin-1(2H)-carboxylate]",MIC,[1]; [4],1.5 µM
same,MIC,[1]; [5],0.78 µM
same,MIC,[2],200 µM
same,IC50,[3]; [6],> 20 µM
"NC[C@H]1CN(c2ccc(-c3ccc4cc[nH]c4c3)c(F)c2)C(=O)O1 [Example 27, (5S)-5-(aminomethyl)-3-[3-fluoro-4-(1H-indol-6-yl)phenyl]-1,3-oxazolidin-2-one]",MIC,[1]; [4],0.78 µM
same,MIC,[1]; [5],0.39 µM
same,MIC,[2],200 µM
same,IC50,[3]; [6],> 50 µM
"COc1ncc(-c2ccc(N3C[C@H](CN)OC3=O)cc2F)cn1 [Example 28, (5S)-5-(aminomethyl)-3-[3-fluoro-4-(2-methoxypyrimidin-5-yl)phenyl]-1,3-oxazolidin-2-one]",MIC,[1]; [4],1.14 µM
same,MIC,[1]; [5],0.3 µM
same,MIC,[2],200 µM
same,IC50,[3]; [6],> 100 µM
"NC[C@H]1CN(c2ccc(-c3cnc(N4CCCOCC4)nc3)c(F)c2)C(=O)O1 [Example 29, (5S)-5-(aminomethyl)-3-{3-fluoro-4-[2-(1,4-oxazepan-4-yl)pyrimidin-5-yl]phenyl}-1,3-oxazolidin-2-one]",MIC,[1]; [4],1.5 µM
same,MIC,[1]; [5],0.39 µM
same,MIC,[2],200 µM
same,IC50,[3]; [6],> 25 µM
"NC[C@H]1CN(c2ccc(-c3ccnc(Cl)c3)c(F)c2)C(=O)O1 [Example 30, (5S)-5-(aminomethyl)-3-[4-(2-chloropyridin-4-yl)-3-fluorophenyl]-1,3-oxazolidin-2-one]",MIC,[1]; [4],0.39 µM
same,MIC,[1]; [5],0.09 µM
same,MIC,[2],200 µM
same,IC50,[3]; [6],> 20 µM
"NC[C@H]1CN(c2ccc(-c3ccnc4[nH]ccc34)c(F)c2)C(=O)O1 [Example 31, (5S)-5-(aminomethyl)-3-[3-fluoro-4-(1H-pyrrolo[2,3-b]pyridin-4-yl)phenyl]-1,3-oxazolidin-2-one]",MIC,[1]; [4],0.78 µM
same,MIC,[1]; [5],0.39 µM
same,MIC,[2],200 µM
same,IC50,[3]; [6],> 20 µM
"CSc1ncc(-c2ccc(N3C[C@H](CN)OC3=O)cc2F)cn1 [Example 32, (5S)-5-(aminomethyl)-3-{3-fluoro-4-[2-(methylsulfanyl)pyrimidin-5-yl]phenyl}-1,3-oxazolidin-2-one]",MIC,[1]; [4],0.29 µM
same,MIC,[1]; [5],0.24 µM
same,MIC,[2],200 µM
same,IC50,[3]; [6],> 20 µM
"NC[C@H]1CN(c2ccc(-c3ccc(C4CC4)nc3)c(F)c2)C(=O)O1 [Example 33, (5S)-5-(aminomethyl)-3-[4-(6-cyclopropylpyridin-3-yl)-3-fluorophenyl]-1,3-oxazolidin-2-one]",MIC,[1]; [4],0.19 µM
same,MIC,[1]; [5],0.845 µM
same,MIC,[2],200 µM
same,IC50,[3]; [6],> 20 µM
"NC[C@H]1CN(c2ccc(-c3ccc4c(c3)CNC4=O)c(F)c2)C(=O)O1 [Example 34, 5-{4-[(5S)-5-(aminomethyl)-2-oxo-1,3-oxazolidin-3-yl]-2-fluorophenyl}-2,3-dihydro-1H-isoindol-1-one]",MIC,[1]; [4],0.04 µM
same,MIC,[1]; [5],0.04 µM
same,MIC,[2],200 µM
same,IC50,[3]; [6],> 20 µM
"Cn1cc(-c2ccc(N3C[C@H](CN)OC3=O)cc2F)cn1 [Example 37, (5S)-5-(aminomethyl)-3-[3-fluoro-4-(1-methyl-1H-pyrazol-4-yl)phenyl]-1,3-oxazolidin-2-one]",MIC,[1]; [4],0.39 µM
same,MIC,[1]; [5],0.29 µM
same,MIC,[2],200 µM
same,IC50,[3]; [6],> 20 µM
"NC[C@H]1CN(c2ccc(-c3cnn4ncccc34)c(F)c2)C(=O)O1 [Example 38, (5S)-5-(aminomethyl)-3-(3-fluoro-4-pyrazolo[1,5-b]pyridazin-3-ylphenyl)-1,3-oxazolidin-2-one]",MIC,[1]; [4],0.39 µM
same,MIC,[1]; [5],0.14 µM
same,MIC,[2],200 µM
same,IC50,[3]; [6],> 20 µM
"NC[C@H]1CN(c2ccc(-c3ccccc3)c(F)c2)C(=O)O1 [Example 39, (5S)-5-(aminomethyl)-3-(2-fluorobiphenyl-4-yl)-1,3-oxazolidin-2-one]",MIC,[1]; [4],0.78 µM
same,MIC,[1]; [5],0.585 µM
same,MIC,[2],200 µM
same,IC50,[3]; [6],> 20 µM
"CSc1ccc(-c2ncc(N3C[C@H](CNC(C)=O)OC3=O)cc2F)cc1 [Example 40, (S)—N-((3-(5-fluoro-6-(4-(methylthio)phenyl)pyridin-3-yl)-2-oxooxazolidin-5-yl)methyl)acetamide]",MIC,[1]; [4],0.09 µM
same,MIC,[1]; [5],0.076 µM
same,MIC,[2],4.69 µM
same,IC50,"[3]; HepG2, 96 h",> 15 µM
"CSc1ccc(-c2ccc(N3C[C@H](CNC(=O)C4CC4)OC3=O)cc2F)cc1 [Example 41, (S)—N-((3-(2-fluoro-4′-(methylthio)-[1,1′-biphenyl]-4-yl)-2-oxooxazolidin-5-yl)methyl)cyclopropanecarboxamide]",MIC,[1]; [4],0.04 µM
same,MIC,[1]; [5],0.04 µM
same,MIC,[2],200 µM
same,IC50,[3]; [6],8 µM
"CC(=O)NC[C@H]1CN(c2ccc(N3CCn4ncnc4C3)cc2)C(=O)O1 [Example 42, (S)—N-((3-(4-(5,6-dihydro-[1,2,4]triazolo[1,5-a]pyrazin-7(8H)-yl)phenyl)-2-oxooxazolidin-5-yl)methyl)acetamide]",MIC,[1]; [4],1.5 µM
same,MIC,[1]; [5],1.5 µM
same,MIC,[2],200 µM
same,IC50,"[3]; HepG2, 96 h",> 20 µM
"CSc1ccc(-c2ccc(N3C[C@H](Cn4cncn4)OC3=O)cc2F)cc1 [Example 43, (R)-5-((1H-1,2,4-triazol-1-yl)methyl)-3-(2-fluoro-4′-(methylthio)-[1,1′-biphenyl]-4-yl)oxazolidin-2-one]",MIC,[1]; [4],0.19 µM
same,MIC,[1]; [5],0.58 µM
same,MIC,[2],200 µM
same,IC50,[3]; [6],> 20 µM
"CSc1ccc(-c2ccc(N3C[C@H](Cn4cnnn4)OC3=O)cc2F)cc1 [Example 44, (5R)-3-[2-fluoro-4′-(methylsulfanyl)biphenyl-4-yl]-5-(1H-tetrazol-1-ylmethyl)-1,3-oxazolidin-2-one]",MIC,[1]; [4],0.04 µM
same,MIC,[1]; [5],0.19 µM
same,MIC,[2],200 µM
same,IC50,[3]; [6],> 20 µM
"CSc1ccc(-c2ccc(N3C[C@H](Cn4cccn4)OC3=O)cc2F)cc1 [Example 46, (5R)-3-[2-fluoro-4′-(methylsulfanyl)biphenyl-4-yl]-5-(1H-pyrazol-1-ylmethyl)-1,3-oxazolidin-2-one]",MIC,[1]; [4],0.29 µM
same,MIC,[1]; [5],0.585 µM
same,MIC,[2],200 µM
same,IC50,[3]; [6],> 20 µM
"CSc1ccc(-c2c(F)cc(N3C[C@H](CNC(C)=O)OC3=O)cc2F)cc1 [Example 47, (S)—N-((3-(2,6-difluoro-4′-(methylthio)-[1,1′-biphenyl]-4-yl)-2-oxooxazolidin-5-yl)methyl)acetamide]",MIC,[1]; [4],0.01 µM
same,MIC,[1]; [5],0.03 µM
same,MIC,[2],0.781 µM
same,IC50,[3]; [6],> 20 µM
"NC[C@H]1CN(c2cnc(N3CCS(=O)(=O)CC3)c(F)c2)C(=O)O1 [Example 48, (S)-5-(aminomethyl)-3-(6-(1,1-dioxidothiomorpholino)-5-fluoropyridin-3-yl)oxazolidin-2-one]",MIC,[1]; [4],0.78 µM
same,MIC,[1]; [5],0.39 µM
same,MIC,[2],200 µM
same,IC50,[3]; [6],> 100 µM
